Laboratory results: paper PMC12655351, “Synthesis and Anticancer Activity Evaluation of New 5-((5-Nitrofuran-2-yl)allylidene)-2-thioxo-4-thiazolidinones” (Pharmaceuticals, 2025)
Values joined by “and” are separate entries in the source; they are usually repeats but may differ in a detail not shown here. Equal values may be shown once. One block for each molecule: values may come before it.

Legend:
A498 = assay: cells; conditions: Homo sapiens, A498, 48 h
EKVX = assay: NCI-60 SRB screen; conditions: 48 h; for CC50: read-out: LC50, EKVX, 48 h
HOP-62 = assay: NCI-60 SRB screen; conditions: for TGI / GI50: HOP-62, 48 h; for GI50: Homo sapiens
HCT-116 = assay: MTT assay; type: cell-based; conditions: Homo sapiens; HCT-116, 24 h of treatment
Procedure: (§1) The NCI-60 screening protocol utilizes the sulforhodamine B (SRB) assay following 48 h of compound exposure. […] The MTT assay was performed on eleven cancer cell lines: human breast cancer (MDA-MB-231, MCF-7, HCC 1954), human gastric cancer (AGS), human colorectal adenocarcinoma (HT-29, DLD-1, HCT 116), human neuroblastoma (SH SY5Y), and human leukemia (JURKAT, RMPI 8866, K-562) cell lines. The study was conducted in triplicate at the following seven concentrations: 0.62, 1.25, 2.5, 5, 10, 20, and 40 μM.
(§2) The selected cell lines were seeded into 96-well plates and cultured in accordance with the previously described methodology. Then, the cells were treated with all tested compounds and DOX at concentrations of 0.625, 1.25, 2.5, 5.0, 10.0, 20.0, and 40.0 μM for 24 h. A solution of 3-(4,5-dimethyl-2-thiazolyl)-2,5-diphenyl-2H-tetrazolium bromide (Sigma-Aldrich, St. Louis, MO, USA) in phosphate-buffered saline without calcium and magnesium (Corning, Kennebunk, ME, USA) at a concentration of 5 mg/mL was used to carry out MTT assay. After incubation, 20 μL of the prepared MTT solution was added, and then the cells were incubated at 37 °C for two hours. Afterwards, the cells were lysed using 100 μL of lysing buffer (comprising 25 mM HCl, 2% acetic acid, 3% DMF, and 5% SDS, with a pH of 4.7). The absorbance was determined at a wavelength of 570 nm using an Absorbance 96 microplate reader (Byonoy GmbH, Hamburg, Germany).

MDA-MB-231 = assay: MTT assay; type: cell-based; conditions: Homo sapiens; MDA-MB-231, 24 h of treatment
Procedure: as §1, §2

DLD-1 = assay: MTT assay; type: cell-based; conditions: Homo sapiens; DLD-1, 24 h of treatment
Procedure: as §1, §2

SH SY5Y = assay: MTT assay; type: cell-based; conditions: Homo sapiens, 24 h of treatment
Procedure: as §1, §2

Jurkat = assay: MTT assay; type: cell-based; conditions: Homo sapiens, 24 h of treatment
Procedure: as §1, §2

RPMI 8866 = assay: MTT assay; type: cell-based; conditions: Homo sapiens; RPMI 8866, 24 h of treatment
Procedure: as §1, §2

HT-29 = assay: MTT assay; type: cell-based; conditions: Homo sapiens; HT-29, 24 h of treatment
Procedure: as §1, §2

MCF-7 = assay: MTT assay; type: cell-based; conditions: Homo sapiens, MCF7; MCF-7, 24 h of treatment
Procedure: as §1, §2

SK-OV-3 = assay: cells; conditions: Homo sapiens, SK-OV-3, 48 h; for CC50: read-out: LC50, SK-OV-3, 48 h
KM12 = assay: NCI-60 SRB screen; conditions: KM12, 48 h
T-47D = assay: cells; conditions: Homo sapiens, T47D, 48 h; for GI50: T-47D; for CC50: read-out: LC50
[1] = tested on: panel of 60 cancer cell lines; assay: cells; conditions: Homo sapiens, read-out: MG_MID GI50
CAKI-1 = assay: cells; conditions: Homo sapiens, CAKI-1, 48 h
MCF7 = assay: NCI-60 SRB screen; conditions: MCF7, 48 h
Prostate Cancer = assay: cells; conditions: Homo sapiens, read-out: MG_MID GI50
SN12C = assay: cells; conditions: Homo sapiens, 48 h; for CC50: read-out: LC50, SN12C, 48 h
MOLT-4 = assay: cells; conditions: Homo sapiens, MOLT-4, 48 h; for CC50: read-out: LC50, MOLT-4, 48 h
TK-10 = assay: cells; conditions: Homo sapiens, TK-10, 48 h; for CC50: read-out: LC50, TK-10, 48 h
HT29 = assay: cells; conditions: Homo sapiens, HT-29, 48 h; for GI50: HT29, 48 h; for CC50: read-out: LC50, HT29, 48 h
SK-MEL-28 = conditions: SK-MEL-28, 48 h
PC-3 = conditions: PC-3, 48 h
NCI-H23 = assay: cells; conditions: Homo sapiens, NCI-H23, 48 h; for CC50: read-out: LC50, NCI-H23, 48 h
NCI-H266 = assay: NCI-60 SRB screen; conditions: for GI50 / TGI: NCI-H266, 48 h; for CC50: read-out: LC50, NCI-H266, 48 h
[2] = tested on: panel of 60 cancer cell lines; conditions: for MG_MID TGI: full panel (last line of Table S2)
A549/ATCC = assay: NCI-60 SRB screen
DU-145 = assay: cells; conditions: Homo sapiens, DU-145, 48 h; for CC50: read-out: LC50, DU-145, 48 h
CNS cancer = CNS cancer subpanel
UO-31 = conditions: UO-31, 48 h

SMILES: CCCCC(C(=O)O)N1C(=O)/C(=C/C=C/c2ccc([N+](=O)[O-])o2)SC1=S (stereo not shown) [6b, 2-((Z)-5-((E)-3-(5-nitrofuran-2-yl)allylidene)-4-oxo-2-thioxothiazolidin-3-yl)hexanoic acid]
- GI50 (A498): 3.03 µM
- TGI (EKVX): 5.74 µM
- GI50 (EKVX; Homo sapiens): 2.26 µM
- CC50 (EKVX; Homo sapiens): 19.7 µM
- TGI (HOP-62): 5.20 µM
- GI50 (HOP-62): 2.25 µM
- IC50 (HCT-116): 17.6 µM
- IC50 (MDA-MB-231): 10.3 µM
- IC50 (DLD-1): 4.58 µM
- IC50 (SH SY5Y): 8.39 µM
- IC50 (Jurkat): 13.9 µM
- IC50 (RPMI 8866): 15.2 µM
- IC50 (HT-29): 8.01 µM
- IC50 (MCF-7): 6.39 µM
- GI50 (SK-OV-3): 6.27 µM
- CC50 (SK-OV-3): 46.7 µM
- GI50 (KM12; Homo sapiens): 1.63 µM
- TGI (KM12): 3.24 µM
- GI50 (T-47D): 1.75 µM
- GI50 [1]: 2.3 µM
- GI50 (CAKI-1): 1.67 µM
- GI50 (MCF7; Homo sapiens): 1.64 µM
- TGI (MCF7): 4.11 µM
- GI50 (Prostate Cancer): 3.29 µM
- GI50 (SN12C): 1.75 µM
- CC50 (SN12C): 9.18 µM
- GI50 (MOLT-4): 3.28 µM
- CC50 (MOLT-4): 90.2 µM
- GI50 (TK-10): 3.13 µM
- CC50 (TK-10): 28.3 µM
- GI50 (HT29): 1.98 µM
- CC50 (HT29): 6.95 µM
- TGI (SK-MEL-28): 3.73 µM
- TGI (PC-3): 11.3 µM
- GI50 (NCI-H23): 1.85 µM
- CC50 (NCI-H23): 6.64 µM
- GI50 (NCI-H266; Homo sapiens, 48 h): 2.22 µM
- CC50 (NCI-H266; Homo sapiens, 48 h): 76.1 µM
- TGI (NCI-H266): 5.84 µM
- Positive cytostatic effect (ratio of cell lines with GP from 0 to 50 to total number) ([2]; 10 μM, 48 h): 6/55
- Range of growth ([2]; 10 μM, 48 h, one dose): -99.30 to 46.65%
- MG_MID TGI [2]: 6.27 µM
- TGI (A549/ATCC; 48 h): 5.86 µM
- GI50 (A549/ATCC; Homo sapiens, A549, 48 h): 2.33 µM
- GI50 (DU-145): 3.35 µM
- CC50 (DU-145): 32.9 µM
- MG_MID TGI (CNS cancer): 4.58 µM
- TGI (UO-31): 3.29 µM

SMILES: O=C(O)CCN1C(=O)/C(=C/C=C/c2ccc([N+](=O)[O-])o2)SC1=S [12b, 3-((Z)-5-((E)-3-(5-Nitrofuran-2-yl)allylidene)-4-oxo-2-thioxothiazolidin-3-yl)propanoic acid]
- GI50 (A498): 14.3 µM
- TGI (EKVX): 9.26 µM
- GI50 (EKVX; Homo sapiens): 2.69 µM
- CC50 (EKVX; Homo sapiens): 31.1 µM
- TGI (HOP-62): 3.57 µM
- GI50 (HOP-62): 1.61 µM
- IC50 (HCT-116): 3.68 µM
- IC50 (MDA-MB-231): 12.9 µM
- IC50 (DLD-1): 3.31 µM
- IC50 (SH SY5Y): 13.1 µM
- IC50 (Jurkat): 1.77 µM
- IC50 (RPMI 8866): 7.78 µM
- IC50 (HT-29): 8.56 µM
- IC50 (MCF-7): 3.01 µM
- GI50 (SK-OV-3): 4.7 µM
- CC50 (SK-OV-3): 43.7 µM
- TGI (KM12): 3.37 µM
- GI50 (T-47D): 0.94 µM
- CC50 (T-47D): > 100 µM
- GI50 [1]: 1.68 µM
- GI50 (CAKI-1): 1.42 µM
- GI50 (MCF7; Homo sapiens): 0.46 µM
- TGI (MCF7): 2.10 µM
- GI50 (Prostate Cancer): 2.55 µM
- GI50 (SN12C): 1.07 µM
- CC50 (SN12C): 5.04 µM
- GI50 (MOLT-4): 0.58 µM
- CC50 (MOLT-4): > 100 µM
- GI50 (TK-10): 2.02 µM
- CC50 (TK-10): 7.19 µM
- TGI (SK-MEL-28): 3.05 µM
- TGI (PC-3): 10.6 µM
- GI50 (NCI-H23): 1.69 µM
- CC50 (NCI-H23): 6.7 µM
- GI50 (NCI-H266; Homo sapiens, 48 h): 2.83 µM
- CC50 (NCI-H266; Homo sapiens, 48 h): 79.7 µM
- TGI (NCI-H266): 12.5 µM
- Positive cytostatic effect (ratio of cell lines with GP from 0 to 50 to total number) ([2]; 10 μM, 48 h): 4/55
- Mean growth ([2]; 10 μM, 48 h, one dose): -62.05%
- MG_MID TGI [2]: 4.69 µM
- TGI (A549/ATCC; 48 h): 12.4 µM
- GI50 (A549/ATCC; Homo sapiens, A549, 48 h): 3.21 µM
- GI50 (DU-145): 2.61 µM
- CC50 (DU-145): 33.3 µM
- MG_MID TGI (CNS cancer): 4.09 µM
- TGI (UO-31): 2.25 µM

- IC50 (HCT-116): 39 µM
- IC50 (MDA-MB-231): 25.4 µM
- IC50 (DLD-1): 9.98 µM
- IC50 (Jurkat): 4.78 µM
- IC50 (HT-29): 24.5 µM
- IC50 (MCF-7): 11.3 µM
SMILES: CC(C(=O)O)N1C(=O)/C(=C/C=C/c2ccc([N+](=O)[O-])o2)SC1=S (stereo not shown) [2b, 2-((Z)-5-((E)-3-(5-Nitrofuran-2-yl)allylidene)-4-oxo-2-thioxothiazolidin-3-yl)propanoic acid]
- IC50 (SH SY5Y): 30.6 µM
- IC50 (RPMI 8866): 29 µM

SMILES: O=C(O)CCCN1C(=O)/C(=C/C=C/c2ccc([N+](=O)[O-])o2)SC1=S [13b, 4-((Z)-5-((E)-3-(5-Nitrofuran-2-yl)allylidene)-4-oxo-2-thioxothiazolidin-3-yl)butanoic acid]
- GI50 (A498): 4.13 µM
- GI50 (EKVX): 1.05 µM
- TGI (EKVX): 4.24 µM and 2.52 µM
- GI50 (EKVX; Homo sapiens): 1.83 µM
- CC50 (EKVX; Homo sapiens): 9.84 µM
- growth GP (HOP-62; HOP-62, 10 μM, 48 h): -94.79%
- TGI (HOP-62): 2.67 µM and 1.90 µM
- IC50 (HCT-116): 3.97 µM
- IC50 (MDA-MB-231): 8.73 µM
- IC50 (DLD-1): 3.18 µM
- IC50 (SH SY5Y): 8.41 µM
- IC50 (Jurkat): 0.5 µM
- IC50 (RPMI 8866): 3.94 µM
- IC50 (HT-29): 4.39 µM
- IC50 (MCF-7): 1.63 µM
- GI50 (SK-OV-3): 2.73 µM
- CC50 (SK-OV-3): 28.1 µM
- GI50 (T-47D): 0.34 µM
- CC50 (T-47D): > 100 µM
- GI50 [1]: 1.61 µM
- GI50 (CAKI-1): 0.67 µM
- GI50 (MCF7; Homo sapiens): 0.35 µM
- GI50 (MCF7): 0.2 µM
- TGI (MCF7): 1.97 µM and 1.58 µM
- GI50 (Prostate Cancer): 0.82 µM
- GI50 (SN12C): 0.34 µM
- GI50 (MOLT-4): 0.41 µM
- CC50 (MOLT-4): 8.99 µM
- CC50 (TK-10): 5.84 µM
- GI50 (HT29): 0.45 µM
- CC50 (HT29): 5.44 µM
- GI50 (PC-3): 0.4 µM
- TGI (PC-3): 3.10 µM and 2.02 µM
- CC50 (NCI-H23): 6.24 µM
- GI50 (NCI-H266; Homo sapiens, 48 h): 2.79 µM
- CC50 (NCI-H266; Homo sapiens, 48 h): 76.1 µM
- GI50 (NCI-H266): 1.65 µM
- TGI (NCI-H266): 11.9 µM and 9.78 µM
- Positive cytostatic effect (ratio of cell lines with GP from 0 to 50 to total number) ([2]; 10 μM, 48 h): 2/55
- Mean growth ([2]; 10 μM, 48 h, one dose): -76.34%
- MG_MID TGI [2]: 4.88 µM
- GI50 (A549/ATCC; 48 h): 0.78 µM
- GI50 (A549/ATCC; Homo sapiens, A549, 48 h): 1.36 µM
- GI50 (DU-145): 1.09 µM
- CC50 (DU-145): 4.92 µM
- MG_MID TGI (CNS cancer): 2.09 µM
